Laboratory results as given in US7741303B2, “Stimulation of cellular regeneration and differentiation in the inner ear” (Sound Pharmaceuticals Incorporated, priority 1998, dated 2010).

Tests used:
[1] = test system: guinea pig JH4 cells; assay: Reversal of serum-deprivation growth arrest, BrdU labeling; format: cell-based
From the text: Cells were counted under fluorescence microscopy. The combination of lipids and p27^kip1. AS reversed growth arrest to 40% of that seen with 10% FBS stimulation (p<0.0001). (+) FBS; (−) no FBS; (AS) antisense oligonucleotide; (lipid) lipofection.
Cultures of cell lines were established that are responsive to p27^Kip1 antisense oligonucleotides (ON) during the period of serum withdrawal and growth arrest. These cultures include a guinea pig fibroblast line (JH4). Lipofection of the 16 mer antisense ON (having the nucleic acid sequence set forth in SEQ ID NO:20) reversed growth arrest in the JH4 cell line to over 40% of normal.

[2] = test system: organ of Corti; assay: BrdU-labeled cells in the organ of Corti of p27^Kip1 +/+, +/−, −/− mice after amikacin lesioning; format: in vivo; conditions: for number of BrdU labeled cells in the organ of Corti: 1000 μm length of sensory epithelium, apical half of cochlea, ±s.d.
Description: To determine whether auditory hair cells were being produced after the onset of hearing at postnatal day 10, two-week old p27^Kip1 −/−, +/−, +/+ mice (P10-12) received three daily systemic injections of bromodeoxyuridine (BrdU; 30 mg/kg/s.c), a nucleotide analog which is incorporated into proliferating cells during S phase. Mice were then permitted to recover for two-days or two-weeks without further injections. BrdU positive HCs were identified with immunocytochemistry using light and fluorescence microscopy. Cochlea were also labeled with antibodies against myosin-VI and myosin-VIIa. In two-week old p27^Kip1 −/− cochlea that were recovered for 2d after the last injection, no BrdU/myosin-VIIa positive cells were observed among the BrdU positive cells. However, in four-week old p27^Kip1 −/− cochlea that were recovered for 14 days after the last injection, BrdU/myosin-VIIa positive HCs were observed. Most of those double labeled were IHCs. This qualitative finding is similar to our quantitative assessments of IHCs and OHCs numbers. p27^Kip1 +/−, +/+ mice were completely devoid of BrdU positive cells at 2d and 14d of recovery. […] Counts were performed on a 1000 μm length of sensory epithelium taken in the apical half of the cochlea (±s.d.). Proliferation in the BrdU groups were compared across +/+, +/−and −/−. Proliferation in the BrdU/Amikacin group was compared with that in the BrdU only group of the same genotype. Statistical significance was determined using ANOVA.
To ascertain whether auditory HCs could be regenerated, HCs were lesioned using systemic injections of amikacin sulfate (P7-P12) and then injected with BrdU (P10-12). Mice were sacrificed either 2 d or 14 d after the last injection. The effects of an amikacin lesioning were at least two-fold. First, in both p27^Kip1 −/− and +/− mice, the number of BrdU positive cells increased following amikacin/BrdU vs BrdU alone treatment. […] Evidence of HC regeneration was confirmed by sectioning the labeled cochlea. Second, a greater number of BrdU positive HCs were observed following amikacin lesioning in p27^Kip1 −/− cochlea. The majority of the BrdU positive HCs appeared in the regions of the cochlea where the amikacin sulfate had injured or killed HCs (in the basal half of the cochlea).

[3] = test system: auditory function; assay: Auditory brainstem response (ABR) threshold after amikacin sulfate treatment; format: in vivo, mice; conditions: p27 heterozygotes, two and four weeks after amikacin sulfate treatment; p<0.001
Description: Experimental animals were treated the same as the mice described in the experiments reported in Table 2 herein, except that, in the present example, there was an additional recovery time point at four weeks after amikacin treatment. Auditory function was measured using the auditory brainstem response (ABR) using subcutaneous recording electrodes placed on three head points in Isofluorane anesthetized mice. The sound intensity threshold was determined by presenting single frequencies as different sound intensities (intensity measured in decibels). The higher the tone intensity that is required to elicit the ABR, the higher the auditory threshold, i.e., the worse the auditory function.

[4] = test system: utricular, saccular and cristae sensory epithelium; assay: BrdU-labeled cells in the vestibular organs of p27^Kip1 mice after amikacin/BrdU; format: in vivo; conditions: for number of BrdU labeled cells, utricle: BrdU/Amikacin (500 mg/kg/d s.c., P7-P12)
Description: To determine whether p27^Kip1 plays a similar role in the peripheral vestibular system, the proliferative capacity of the utricle, saccule and cristae of p27^Kip1 +/−, and +/+ mice was examined. Mice (P7-P12) received systemic injections of amikacin sulfate (500 mg/kg/d/s.c) for six consecutive days that were combined with injections of the replication marker, bromodeoxyuridine (BrdU; 30 mg/kg/d/s.c) between P10-P12. Mice were also injected with BrdU alone in a similar fashion. Mice were then sacrificed 14 d later and the vestibular sensory organs were fixed, dissected and processed for BrdU immunocytochemistry. BrdU positive nuclei were counted from whole mounts using light microscopy and Nomarski optics. Selected organs were further processed for cross section analysis.
BrdU positive HCs were also observed in both otolithic organs. Most of these regenerated HC appeared as type I HCs in that they were contacted by a calyx. […] In p27^Kip1 +/+ mice, no BrdU positive nuclei in either the saccule or utricle were observed after amikacin/BrdU or BrdU alone. […] Counts were performed from whole utricular, saccular and cristae sensory epithelium (±s.d.). In the BrdU group, statistical significance was determined by comparing proliferation levels in the same sensory organ across +/+, +/− and −/−. In the BrdU/Amikacin group, statistical significance was determined by comparing proliferation levels in the same sensory organ of the same genotype. Statistical significance was determined using ANOVA.

[5] = test system: supporting cells of wild type organ of Corti explants; assay: p27^Kip1 antisense oligonucleotide treatment of neomycin-lesioned organ of Corti explants, BrdU immunocytochemistry; format: cell-based, mouse
Description: (§1) To test whether inhibition of the p27^Kip1 gene product in p27^Kip1 +/+ cochlea would allow non-mitotic supporting cells to proliferate, wild type organ of Corti explants (P7-P10, at age of hearing onset) were treated with p27^Kip1 antisense oligonucleotides (ONs). Explant cultures were established by dissecting the organ of Corti from the cochlea, removing the tectorial membrane and adhering the organ of Corti to a glass slide coated with Cell-tak and maintained at 37° C. in a 5% CO2 environment. The explant was then exposed to an ototoxic antibiotic (1 mM neomycin sulfate) for 48 h which killed >95% of the HCs (Kil, J., et al., ARO abs. 21:672 (1998)). The neomycin containing media was then removed and p27^Kip1 antisense oligonucleotides (Ons) (40 nM) were administered using a cationic lipid (lipofection) for a period of 24-48 hr. Some of these living cultures were examined under fluorescence to detect the presence of FITC conjugated antisense ON.
FITC-positive supporting cells were detected in 18-24 h and increased in number and fluorescent intensity between 24-48 h. Cultures were aldehyde fixed and processed for BrdU immunocytochemistry. […] BrdU-positive doublets appeared in antisense ON treated cultures that were recovered for an additional 24 hr without antisense ONs. […] Lipofection-only treated cultures contained very low levels of BrdU-labeled supporting cells.

[6] = test system: hair cells of organ of Corti explant; conditions: 1 mM neomycin sulfate for 48 h; P7-P10 wild type explants; cited from earlier work
[7] = test system: hair cells of organ of Corti explant; assay: Hair cell lesioning of organ of Corti cultures with neomycin; format: cell-based, mouse; conditions: 1 mM neomycin, organotypic cultures, 48 h, calbindin immunoreactivity and cross-section analysis
Description: as §1, with “The neomycin containing media was then removed and p27^Kip1 antisense oligonucleotides (Ons) (40 nM) were administered using a cationic lipid (lipofection) for a period of 24-48 hr.” left out, “ON. […]” for “ON.”
An aminoglycoside antibiotic lesion of the hair-cells is then be combined with subsequent lipofection. […] Unlike cultures derived from neonatal mice, the two-week old mouse which has developed auditory function is more easily affected by this concentration of neomycin resulting in a greater than 95% loss of hair-cells as determined by calbindin immunoreactivities and plastic cross-section analysis. […] This may necessitate the use of a commercially available GFP antibody (Clonetech) to enhance the fluorescence of lipofected cells.

[8] = p27^Kip1 +/+ mice, BrdU/Amikacin, 14 d recovery, whole sensory epithelium, ±s.d.
[9] = p27^Kip1 +/− mice, BrdU/Amikacin, 14 d recovery, whole sensory epithelium, ±s.d.
[10] = p27^Kip1 −/− mice, BrdU/Amikacin, 14 d recovery, whole sensory epithelium, ±s.d.

With “16 mer antisense ON: 16 mer p27^Kip1 antisense ON having the nucleic acid sequence set forth in SEQ ID NO:20 (antisense TGGCTCTCCTGCGCC; listed as DNA, chemistry not given here)” as the compound, how does the “reversal of growth arrest” value ([1]; lipofection, serum withdrawal) read?
The value was “over 40 % of normal”.

What about the “reversal of growth arrest (BrdU-labeled cells)” value ([1]; serum deprivation 24 hours, BrdU pulse last 4 hours, combination of lipids and AS, p<0.0001) of the same compound?
Its value is 40 % of that seen with 10% FBS stimulation.

With `NCC[C@H](O)C(=O)N[C@@H]1C[C@H](N)[C@@H](O[C@H]2O[C@H](CN)[C@@H](O)[C@H](O)[C@H]2O)[C@H](O)[C@H]1O[C@H]1O[C@H](CO)[C@@H](O)[C@H](N)[C@H]1O.O=S(=O)(O)O.O=S(=O)(O)O` [Amikacin, amikacin sulfate] as the compound, how does the “number of BrdU positive cells following amikacin/BrdU vs BrdU alone treatment” value ([2]; cochlea of both p27^Kip1 −/− and +/− mice) read?
Its value is “increased”.

And the “number of BrdU labeled cells in the organ of Corti” value (“number … of Corti” below) ([2]; p27^Kip1 +/+ mice, BrdU/Amikacin + 2d recovery)?
The value was 0.0 ± 0.0.

What about the “number … of Corti” value ([2]; p27^Kip1 +/+ mice, BrdU/Amikacin + 14d recovery) of the same compound?
The value was 0.0 ± 0.0.

And the “number … of Corti” value ([2]; p27^Kip1 +/− mice, BrdU/Amikacin + 2d recovery)?
The value was 4.7 ± 7.6.

What about the “number … of Corti” value ([2]; p27^Kip1 +/− mice, BrdU/Amikacin + 14d recovery) of the same compound?
The value was 10.5 ± 12.0.

And the “number … of Corti” value ([2]; p27^Kip1 −/− mice, BrdU/Amikacin + 2d recovery)?
Its value is 96.3 ± 9.5.

And the “number … of Corti” value ([2]; p27^Kip1 −/− mice, BrdU/Amikacin + 14d recovery)?
Its value is 137.4 ± 17.0.

What about the “p27 heterozygotes showing evidence of inner cell proliferative regeneration (BrdU-labeling and morphologic criteria)” value ([2]; p27 heterozygotes of Table 2, amikacin treated) of the same compound?
The value was “five out of ten”.

What about the “BrdU positive cells in wt cochlea” value ([2]; wt cochlea following amikacin/BrdU) of the same compound?
Its value is “No BrdU positive cells were observed”.

And the “auditory improvement (ABR threshold)” value [3]?
The value was “five out of eight”.

What about the “number of BrdU labeled cells, utricle” value ([4]; p27^Kip1 +/+ mice, 14 d recovery, whole sensory epithelium, ±s.d.) of the same compound?
Its value is 0.0 ± 0.0.

And the “number of BrdU labeled cells, cristae” value [4, 8]?
The value was 0.0 ± 0.0.

What about the “number of BrdU labeled cells, saccule” value [4, 8] of the same compound?
The value was 0.0 ± 0.0.

And the “proliferation in the saccule or utricle after combined amikacin/BrdU treatment” value ([4]; p27^Kip1 +/− mice)?
The value was “a very low level of proliferation was induced”.

What about the “number of BrdU labeled cells, utricle” value ([4]; p27^Kip1 +/− mice, 14 d recovery, whole sensory epithelium, ±s.d.) of the same compound?
The value was 0.4 ± 0.7.

What about the “number of BrdU labeled cells, cristae” value [4, 9] of the same compound?
The value was 0.0 ± 0.0.

What about the “number of BrdU labeled cells, saccule” value [4, 9] of the same compound?
Its value is 1.6 ± 1.9.

And the “number of BrdU labeled cells, utricle” value ([4]; p27^Kip1 −/− mice, 14 d recovery, whole sensory epithelium, ±s.d.)?
The value was 45.5 ± 19.2.

What about the “number of BrdU labeled cells, cristae (sub-head printed as utricle)” value [4, 10] of the same compound?
Its value is 0.0 ± 0.0.

What about the “number of BrdU labeled cells, saccule” value [4, 10] of the same compound?
The value was 51.8 ± 15.3.

What about the “increase in the number of BrdU positive cells after combined amikacin/BrdU treatment” value ([4]; p27^Kip1 −/− mice, saccule and utricle (both organs), versus BrdU only) of the same compound?
Its value is 40 fold.

With “antisense ON: p27^Kip1 antisense oligonucleotides administered using a cationic lipid (lipofection) to organ of Corti explants (antisense TGGCTCTCCTGCGCC; FITC conjugated, delivered with cationic lipid, further chemistry not given here)” as the compound, how does the BrdU-positive supporting cells ([5]; 40 nM antisense ON by lipofection, after 24 h of treatment, after 1 mM neomycin 48 h) read?
The BrdU-positive supporting cells was “appeared in most cochlear cultures”.

And the “time at which FITC-positive supporting cells were detected” value ([5]; FITC conjugated antisense ON, lipofection, living cultures under fluorescence)?
The value was 18 to 24 h.

What about the BrdU-positive doublets ([5]; antisense ON treated cultures recovered for an additional 24 hr without antisense ONs) of the same compound?
The BrdU-positive doublets was “appeared”.

With neomycin sulfate as the compound, how does the HCs killed [6] read?
Its HCs killed is over 95%.

And the “loss of hair cells” value [7]?
The value was “greater than 95%”.

And the “loss of hair cells” value ([7]; listed as neomycin)?
The value was 95%.
